In paper PMC4900628, “Critical Evaluation of P2X7 Receptor Antagonists in Selected Seizure Models” (PLoS ONE, 2016):
Where two headings read alike, the source gives them in different places.

Legend:
Type in all cases: in vivo
[1] = Plasma and brain concentration in mice (co-administration with AEDs); details: MES-T; for concentration at 30 min: mouse, brain, intraperitoneal, CBZ 7 mg/kg i.p.
Protocol: Blood was collected intracardially by heart […] pipettes supplemented with heparin-Na (ratiopharm, Ulm, Germany; 10μl of 5.000 I.U./ml) and separated by centrifuging (1500xg for 10 min) at 6-8°C. The plasma was stored at -20°C in plastic tubes. After blood sample collection, rats were decapitated and brains were quickly dissected. After removing the adherent blood by tissue paper and cutting off the cerebellum, the samples were fresh frozen using liquid nitrogen. Brain tissue was stored at -80°C and delivered to the different laboratories on dry ice. For mice (groups with n = 6), a similar procedure was used for the preparation of plasma and brain samples. In experiments in which AFC was co-administered with carbamazepine or ethosuximide, drug concentrations in plasma and brain were estimated to detect potential pharmacokinetic interactions. Samples from experiments with AFC were analysed at the Lead Discovery Center (Dortmund, Germany). Briefly, AFC, carbamazepine and ethosuximide were extracted from plasma and homogenized brain by protein precipitation using acetonitrile. Resulting filtrates were analysed by liquid chromatography tandem-mass spectrometry (LC-MS/MS) using a Prominence UFLC system (Shimadzu, Duisburg, Germany) coupled to a QTrap 5500 instrument (ABSciex, Darmstadt, Germany). The compounds were separated on a Zorbax Eclipse Plus C18 column (Agilent Technologies, Santa Clara, CA, USA) with an acetonitrile/water gradient containing 0.1% formic acid as solvent. Chromatographic conditions and mass spectrometer parameters were optimized for each analyte. Plasma and brain concentrations of the compounds were calculated by means of a standard curve. Data were analysed using SigmaPlot (vers. 12.0, Systat Software, Erkrath, Germany) and SPSS (IBM SPSS Statistics 20, […], Germany), respectively. Results are expressed as mean ± SEM. […] In the MES-T, the current intensity inducing tonic hindlimb extensions in 50% of the mice (CC50 values with confidence limits for 95% probability) and the statistical significance was calculated using Probit analysis (SPSS). […] In the PTZ-T, the number of animals in the group with clonic seizures and the latency time were analysed using Fisher's exact probability test and the Mann-Whitney rank sum test, respectively. For multiple comparisons of the latency time a one-way ANOVA with the Holm-Sidak post hoc test was used. The influence of AFC on the plasma and brain concentrations of the antiepileptic drugs was statistical compared using the same procedure. In the PTZ-kindling model, the mean seizure stage within a group was calculated in relation to the number of PTZ-injections. Statistical comparison between vehicle- and compound-treated groups in this model was performed with two-way repeated measures ANOVA, followed by the Holm-Sidak post hoc test. The mean number of PTZ-injections needed to produce the first generalized seizure (≥ stage 3 convulsions) in the vehicle- versus compound-treated groups was statistically compared using a Mann-Whitney rank sum test. In fully kindled rats, the calculated mean seizure stage within a group after vehicle- and compound-treatment were compared using a paired t-test. P < 0.05 was the accepted minimum level of significance.

[2] = tested on: electroshock-induced tonic (hindlimb extension) seizures; assay: Maximal electroshock seizure threshold test (MES-T); details: mice; carbamazepine 7 mg/kg i.p. alone, 30 min before
Protocol: The stimulus train was applied via ear-clip electrodes (sinusoidal pulses 4-14 mA, 50 Hz, 0.2 s duration) by means of a constant current stimulator (rodent-shocker type 221; Hugo Sachs Elektronik, March-Hugstetten, Germany). […] Groups of 20 mice were used. Control groups, which received the corresponding vehicle, were tested together with the compound-treated groups on the same experimental day. Current intensity-effect curves were obtained on the basis of the number of animals responding with the endpoint at the corresponding current value. The results are calculated as convulsive current fifty (CC50) values (current intensity in mA, necessary to produce tonic hindlimb extension in 50% of the mice tested) including the confidence limits for 95% probability. […] Chemicals, Toronto, Canada) was slowly added. The pH was adjusted with 1N NaOH (similar amount of NaOH as HCl), all with continuous stirring. […] The drug solutions or suspensions were prepared immediately before use; all doses refer to the salts. Animals in the control group received equivalent volumes of the vehicle (in mice always 10 ml/kg, in rats 1 ml/kg [JNJ], 3 ml/kg [AFC] or 4 ml/kg [BBG, TIIAS], depending on the solubility of the different compounds). Doses and peak time effects were selected on the basis of effective doses from corresponding in vivo studies in the literature: BBG (e.g.), tanshinone IIA (e.g.) and from manufacturer's experimental data: AFC, JNJ (see, [80]). Data were analysed using SigmaPlot (vers. 12.0, Systat Software, Erkrath, Germany) and SPSS (IBM SPSS Statistics 20, […], Germany), respectively. Results are expressed as mean ± SEM. […] In the PTZ-T, the number of animals in the group with clonic seizures and the latency time were analysed using Fisher's exact probability test and the Mann-Whitney rank sum test, respectively. […] In the PTZ-kindling model, the mean seizure stage within a group was calculated in relation to the number of PTZ-injections. […] In fully kindled rats, the calculated mean seizure stage within a group after vehicle- and compound-treatment were compared using a paired t-test. […]

[3] = tested on: PTZ-induced seizures in fully PTZ-kindled rats; assay: PTZ-induced seizures in fully kindled rats; details: fully kindled rats; 20 mg/kg i.p.; pre-drug (vehicle) value 4.1
Excerpt: Results were expressed as mean seizure stages of a tested group in which the seizure behaviour after vehicle treatment (vehicle seizure stage) and after compound treatment (compound seizure stage), examined 3-4 days later, was matched. For comparison, the effectiveness of two antiepileptic drugs (carbamazepine and valproate) was also investigated. […] Chemicals, Toronto, Canada) was slowly added. The pH was adjusted with 1N NaOH (similar amount of NaOH as HCl), all with continuous stirring. […] The drug solutions or suspensions were prepared immediately before use; all doses refer to the salts. Animals in the control group received equivalent volumes of the vehicle (in mice always 10 ml/kg, in rats 1 ml/kg [JNJ], 3 ml/kg [AFC] or 4 ml/kg [BBG, TIIAS], depending on the solubility of the different compounds). Doses and peak time effects were selected on the basis of effective doses from corresponding in vivo studies in the literature: BBG (e.g.), tanshinone IIA (e.g.) and from manufacturer's experimental data: AFC, JNJ (see, [80]). Data were analysed using SigmaPlot (vers. 12.0, Systat Software, Erkrath, Germany) and SPSS (IBM SPSS Statistics 20, […], Germany), respectively. Results are expressed as mean ± SEM. […] In the MES-T, the current intensity inducing tonic hindlimb extensions in 50% of the mice (CC50 values with confidence limits for 95% probability) and the statistical significance was calculated using Probit analysis (SPSS). […] In the PTZ-T, the number of animals in the group with clonic seizures and the latency time were analysed using Fisher's exact probability test and the Mann-Whitney rank sum test, respectively. For multiple comparisons of the latency time a one-way ANOVA with the Holm-Sidak post hoc test was used. The influence of AFC on the plasma and brain concentrations of the antiepileptic drugs was statistical compared using the same procedure. In the PTZ-kindling model, the mean seizure stage within a group was calculated in relation to the number of PTZ-injections. Statistical comparison between vehicle- and compound-treated groups in this model was performed with two-way repeated measures ANOVA, followed by the Holm-Sidak post hoc test. The mean number of PTZ-injections needed to produce the first generalized seizure (≥ stage 3 convulsions) in the vehicle- versus compound-treated groups was statistically compared using a Mann-Whitney rank sum test. In fully kindled rats, the calculated mean seizure stage within a group after vehicle- and compound-treatment were compared using a paired t-test. P < 0.05 was the accepted minimum level of significance.

plasma concentrations of CBZ on co-application of AFC ([1]; AFC 25 or 50 mg/kg s.c.): not significantly modulated | concentration at 30 min ([1]; 7 mg/kg, n = 6, read-out: brain concentration of CBZ alone): 22.8 ± 1.5 µM | concentration at 30 min ([1]; n = 6, significantly lowered, read-out: brain concentration of CBZ with AFC 25 mg/kg s.c.): 16.2 ± 0.6 µM | concentration at 30 min ([1]; n = 6, significantly lowered, read-out: brain concentration of CBZ with AFC 50 mg/kg s.c.): 17.2 ± 1.7 µM
SMILES: NC(=O)N1c2ccccc2C=Cc2ccccc21 [carbamazepine]
increase of the electroconvulsive threshold [2]: about 50% | mean seizure stage, post-drug [3]: 2.3
